How the values were obtained:
[1] = tested on: tight intercellular junctions (TJs); conditions: preliminary studies in vivo and in vitro, Dong et al. 2018; cited from earlier work
NOD mice [2] = assay: Atrophy of the intestinal mucosa, Corazza-Villanacci classification, NOD mice; assay type: in vivo, mouse
Method: (§1) Small intestine samples were taken from mice belonging to experimental groups 2 (pathology control) and 7 (cholecalciferol 130 μg/kg) of the experiment described in Example 1 and were processed to evaluate by immunohistochemistry the expression of three proteins: the receptor for vitamin D (VDR), the T-cell marker (CD3) which indicates lymphocyte infiltration and the protein of Zonula Occludens 1 or Zonulin-1 (Z0-1) which is usually released in serum and tissue following destruction of the intestinal epithelial barrier, in particular of the intercellular tight junctions (TJs).
The atrophy of the intestinal mucosa was evaluated according to the Corazza-Villanacci classification.

[3] = tested on: receptor for vitamin D (VDR); assay: Immunohistochemistry of VDR in mucosa of small intestine of NOD mice; assay type: in vivo, mouse; conditions: 130 μg/kg vs pathology control, IHC
Method: as §1
(§2) The samples were washed in xylene, hydrated and washed in water with solutions of ethanol and water to scale. The recovery of the antigen was carried out in sodium citrate buffer using the standard “pressure cooker” protocol. Once the antigen recovery was completed, the samples were placed at room temperature for 10 ‘and washed twice for 2’ in PBS tween (phosphate buffer saline with tween). Non-specific sites were blocked with 200 μL of T20 starting block.
(§3) They were then dispensed on each slide, either 200 μL of solution comprising the primary antibody of interest, or 200 μL of the respective negative control. The slides were then left to incubate overnight in a humid chamber with PBS at 4° C.
(§4) After incubation, repeated washes were carried out in wash buffer at room temperature, after which the endogenous peroxidase was blocked with a 0.3% hydrogen peroxide buffer.
(§5) Subsequently, repeated washes were carried out again in wash buffer at room temperature and the secondary antibody was added, which was left to incubate for 1 hour at room temperature.
(§6) Repeated washings were then carried out again in wash buffer at room temperature. Subsequently, the DAB solution (3′,3′-Diaminobenzidine) was added, which was then blocked by washing at room temperature.
(§7) Finally, counterstaining with Meyer's hematoxylin was carried out and the reaction was stopped by washing in water.
(§8) The slides were then mounted with two drops of aqueous mounting medium and allowed to dry.
(§9) Antibody labelling in villi, crypts and goblet cells was evaluated.

NOD mice [4] = assay: Histopathological lesion scoring (Marsh) of small intestine in NOD mouse model of celiac disease; assay type: in vivo; conditions: for Lesion type 0, number of animals / Lesion type 1, number of animals / Lesion type 2, number of animals / Lesion type 3, number of animals: celiac NOD mice
Source text: (§10) For the study, the NOD (Non Obese Diabetic) mouse was chosen as an experimental model which, when fed with a standard diet containing gluten, is able to spontaneously develop enteropathy and autoimmune disorders, with alterations of the small intestine similar to those observed. in human celiac disease.
(§11) 103 female NOD mice aged four weeks were then placed in two different enclosure rooms (one for mice intended to follow a standard diet and one for mice intended for a gluten-free diet) and allowed to acclimate for a period of at least seven days.
(§12) They were then randomly assigned to seven different experimental groups. The development of enteropathy was achieved by feeding NOD mice with a standard diet containing gluten and administering gliadin orally with a dosage of 10 μg/kg for ten consecutive days.
(§13) The seven experimental groups are represented in the following table 1.
(§14) At the end of the treatment period the mice were sacrificed. A macroscopic examination was performed and the small intestine was removed from each mouse to be subjected to microscopic examinations.
(§15) In particular, histopathological and histomorphometric examinations were carried out on sections of intestine with a thickness of 5-7 μm placed in paraffin and stained with hematoxylin-eosin.
The scoring system described in Marsh et al, Gut 1990 January; 31 (1): 111-4 was used, to allow comparison between groups with different degrees of inflammatory infiltration and type of lesions observed under the microscope, which provides for the following classification: • lesion type 0: normal intestinal mucosa; • lesion type 1 (infiltrative): normal morphology and architecture of the villi, higher number of intraepithelial lymphocytes; • lesion type 2 (hyperplastic): normal morphology and architecture of the villi, higher number of intraepithelial lymphocytes, hyperplasia of the glandular elements; • lesion type 3 ([…]): different degrees of atrophy of the villi with hypertrophy of the glandular crypts, superficial enterocytes with reduced height, higher number of intraepithelial lymphocytes.
(§16) Fifteen histomorphometric measurements of the height of the villi were then carried out from each of the five small intestine sections evaluated for each mouse. The results of the microscopic histopathological evaluation are summarized in the following table 2, which contains the four degrees of lesion previously described and the number of animals of each group presenting the various types of lesions.

T-cell marker (CD3) = assay: Immunohistochemistry of CD3 in mucosa of small intestine of NOD mice; assay type: in vivo, mouse; conditions: IHC
Method: as §1, §2, §3, §4, §5, §6, §7, §8, §9

[5] = tested on: Zonula Occludens 1 or Zonulin-1 (Z0-1); assay: Immunohistochemistry of ZO-1 in mucosa of small intestine of NOD mice; assay type: in vivo, mouse; conditions: 130 μg/kg vs vehicle group, IHC
Method: as §1, §2
They were then dispensed on each slide, either 200 μL of solution comprising the primary antibody of interest, or 200 μL of the respective negative control. The slides were then left to incubate overnight in a humid chamber with PBS at 4° C. […]
as §9

[6] = cited from earlier work
NOD mice [7] = assay: Histomorphometric measurement of villus length in small intestine of NOD mice; assay type: in vivo, mouse; conditions: for Villus length: celiac NOD mice
Source text: as §10, §11, §12, §13, §14, §15, §16

[8] = 5 μg/kg/day orally once a day for 12 weeks, n = 15
[9] = 10 μg/kg/day orally once a day for 12 weeks, n = 15
[10] = 20 μg/kg/day orally once a day for 12 weeks, n = 16
[11] = 50 μg/kg/day orally once a day for 12 weeks, n = 16
[12] = 130 μg/kg/day orally once a day for 12 weeks, n = 15

C=C1/C(=C\C=C2/CCC[C@]3(C)[C@@H]([C@H](C)CCCC(C)(C)O)CC[C@@H]23)C[C@@H](O)C[C@@H]1O [calcitriol]
Effect on the intestinal mucosal barrier towards PT-G [1]: protective action against TJs

C=C1CC[C@H](O)C/C1=C/C=C1\CCC[C@]2(C)[C@@H]([C@H](C)CCCC(C)C)CC[C@@H]12 [Cholecalciferol]
Atrophy of the villi (NOD mice [2]; 130 μg/kg vs pathology control, ZO-1 slides): less marked | Atrophy in the villi compared to vehicle treated control (NOD mice [2]; 130 μg/kg, VDR slides): reduction in atrophy | VDR marking in crypts [3]: the same phenomenon was observed in the crypts | VDR marking in villi [3]: greater expression of VDR | VDR, intensity of marking of goblet cells [3]: greater intensity of marking | VDR, number of marked goblet cells [3]: smaller number of marked cells | Lesion type 0, number of animals (NOD mice [4]; [8]): 0 | Lesion type 1, number of animals (NOD mice [4]; [8]): 2 | Lesion type 2, number of animals (NOD mice [4]; [8]): 13 | Lesion type 3, number of animals (NOD mice [4]; [8]): 0 | Lesion type 0, number of animals (NOD mice [4]; [9]): 0 | Lesion type 1, number of animals (NOD mice [4]; [9]): 9 | Lesion type 2, number of animals (NOD mice [4]; [9]): 4 | Lesion type 3, number of animals (NOD mice [4]; [9]): 2 | Lesion type 0, number of animals (NOD mice [4]; [10]): 0 | Lesion type 1, number of animals (NOD mice [4]; [10]): 7 | Lesion type 2, number of animals (NOD mice [4]; [10]): 4 | Lesion type 3, number of animals (NOD mice [4]; [10]): 5 | Lesion type 0, number of animals (NOD mice [4]; [11]): 3 | Lesion type 1, number of animals (NOD mice [4]; [11]): 3 | Lesion type 2, number of animals (NOD mice [4]; [11]): 9 | Lesion type 3, number of animals (NOD mice [4]; [11]): 1 | Lesion type 0, number of animals (NOD mice [4]; [12]): 3 | Lesion type 1, number of animals (NOD mice [4]; [12]): 3 | Lesion type 2, number of animals (NOD mice [4]; [12]): 6 | Lesion type 3, number of animals (NOD mice [4]; [12]): 3 | General depiction of the lesions compared to the untreated celiac mice (NOD mice [4]; all tested doses (5-130 μg/kg)): overall improvement | General depiction of the lesions compared to the untreated celiac mice (NOD mice [4]; highest doses, repeated administrations of 50 and 130 μg/kg): significantly improved | CD3 expression (T-cell marker (CD3); 130 μg/kg vs pathology control): less expressed | CD3 intensity of marking in goblet cells (T-cell marker (CD3); 130 μg/kg vs pathology control): reduction in the intensity of the marking | CD3 signal in goblet cells compared to the control (T-cell marker (CD3); 130 μg/kg vs pathology control): reduction in the signal | CD3 labelling of villi and crypts (T-cell marker (CD3); 130 μg/kg): unlabeled | ZO-1 marking of villi and crypts [5]: more marked in the group treated with the vehicle | blood half-life (T1/2) ([6]; estimated): 19 to 25 h | functional half-life ([6]; related to slow release by adipose tissue): several weeks | Villus length (NOD mice [7]; [8]): 65.7 ×10 μm | Villus length (NOD mice [7]; [9]): 71.2 ×10 μm | Villus length (NOD mice [7]; [10]): 76.1 ×10 μm | Villus length (NOD mice [7]; [11]): 75.0 ×10 μm | Villus length (NOD mice [7]; [12]): 78.8 ×10 μm | Relation between increase in the length of the villi and dose administered (NOD mice [7]; 5-130 μg/kg): dose-dependent relationship | Villus length compared to untreated celiac controls (NOD mice [7]; all treated groups): longer than those of the untreated celiac controls
